Source: patent publication US12616701B2, “Solid state forms of Resmetirom” (ASSIA CHEMICAL INDUSTRIES LTD., priority 2020, dated 2026)
Where a name gives a salt, the structure may show the parent alone.

How the values were obtained:
[1] = Polymorphic stability at relative humidity, room temperature; assay type: physicochemical; details: for at least 7 days
[2] = Hygroscopicity of the crystalline form; assay type: physicochemical; details: crystalline solid form

SMILES	relative humidity up to which the form is polymorphically stable [1]	hygroscopicity [2]
CC(C)c1cc(Oc2c(Cl)cc(-n3nc(C#N)c(=O)[nH]c3=O)cc2Cl)n[nH]c1=O [Form 20, 2-[3,5-dichloro-4-[(6-oxo-5-propan-2-yl-1H-pyridazin-3-yl)oxy]phenyl]-3,5-dioxo-1,2,4-triazine-6-carbonitrile]	up to 80 % relative humidity	non-hygroscopic
CC(C)c1cc(Oc2c(Cl)cc(-n3nc(C#N)c(=O)[nH]c3=O)cc2Cl)n[nH]c1=O [Form R2-A, Resmetirom piperazine salt]	up to 100 % relative humidity	non-hygroscopic
CC(C)c1cc(Oc2c(Cl)cc(-n3nc(C#N)c(=O)[nH]c3=O)cc2Cl)n[nH]c1=O [Form R3-A, Resmetirom:L-proline]	up to 80 % relative humidity	non-hygroscopic
CC(C)c1cc(Oc2c(Cl)cc(-n3nc(C#N)c(=O)[nH]c3=O)cc2Cl)n[nH]c1=O [Form RC1-A, Resmetirom:nicotinamide]	up to 80 % relative humidity	non-hygroscopic
CC(C)c1cc(Oc2c(Cl)cc(-n3nc(C#N)c(=O)[nH]c3=O)cc2Cl)n[nH]c1=O [Form RC2-A, Resmetirom:caffeine]	up to 100 % relative humidity	non-hygroscopic
CC(C)c1cc(Oc2c(Cl)cc(-n3nc(C#N)c(=O)[nH]c3=O)cc2Cl)n[nH]c1=O [Form RC2-B, Resmetirom:caffeine]	up to 80 % relative humidity	non-hygroscopic
